Assay results published in ChEMBL document CHEMBL5724562, “Toxicity screen in isolated B cell assay results for EUbOPEN Chemogenomics Library” (2024).
Positions of bridges follow the written chain, without caps; N, C: chain ends. Non-standard residues stand in square brackets, D forms with d. Residues, ends and D or L forms follow the SMILES beside them. *: point of attachment. dPhe(4-NHCONH2) = NC(=O)Nc1ccc(C[C@@H](N)C(=O)O)cc1; Dihydroorotyl(S) = O=C1C[C@@H](C(=O)*)NC(=O)N1; dPhe(4-Cl) = N[C@H](Cc1ccc(Cl)cc1)C(=O)O; Phe(4-NH2) = Nc1ccc(C[C@H](N)C(=O)O)cc1; d2Nal = N[C@H](Cc1ccc2ccccc2c1)C(=O)O; Arg(Me) = CNC(=N)NCCC[C@H](N)C(=O)O; Lys(iPr) = CC(C)NCCCC[C@H](N)C(=O)O; d3Pal = N[C@H](Cc1cccnc1)C(=O)O; d4Pal = N[C@H](Cc1ccncc1)C(=O)O; Orn = NCCC[C@H](N)C(=O)O; azaGly = NNC(=O)O; Mpa = O=C(O)CCS

Test system: B cell
Experiment: Cytotoxicity screening of chemical probes in isolated B cell assay. Data is normalized to DMSO control, the cell viability average of replicates are reported. Reduction of ATP level more than 20% indicate compromised cell health status.
Details: human, 0.1 µM

Row | Structure (SMILES) | Cell Viability
1 | CNC(=O)Nc1ccc2c(c1)CC[C@@]21OC(=O)N(CC(=O)N(Cc2ccc(F)cc2)[C@@H](C)C(F)(F)F)C1=O [A-485] | 92.4439%
2 | CCCOc1ccc([C@H]2[C@H](C(=O)O)[C@@H](c3ccc4c(c3)OCO4)CN2CC(=O)Nc2c(CC)cccc2CC)cc1 [A-192621] | 97.3784%
3 | O[C@]1(C(F)(F)F)CCCC[C@H]1Nc1ccc(F)cc1 [BAY-390] | 101.834%
4 | Cc1c[nH]c2nccc(Oc3c(F)cc(Nc4cc(Cl)nc(N)n4)cc3F)c12 [BAY-549] | 99.4175%
5 | O=C(NCc1ncc(C(F)(F)F)cc1Cl)c1ccc2c(c1)C1(CCS(=O)(=O)CC1)[C@H](C1CC1)N2S(=O)(=O)c1ccc(F)cc1 [BAY-784] | 98.8405%
6 | Cc1cc(C)c(-n2ccn3nc(-c4cccnc4)cc23)cc1NC(=O)c1cc(C#N)cc(S(F)(F)(F)(F)F)c1 [BAY-826] | 99.8561%
7 | O=C(O)[C@H]1[C@H](Cn2nnc3ccccc3c2=O)CC[C@@H]1C(=O)c1ccc(OCCC2CCOCC2)cc1 [BAY-7598] | 98.8077%
8 | CCOC(=O)c1cc2cc(-c3cc(C(=O)NCc4ccc(C(=O)O)cc4)nn3C)ccc2[nH]1 [BI 4394] | 99.7292%
9 | CN(C)C(=O)Cn1cc(-c2nc([C@@](C)(c3ccc(-c4cnc(N)nc4)cc3)C3CC3)no2)cn1 [BI 665915] | 103.286%
10 | CNC(=O)c1ccc(Nc2ncc(C(F)(F)F)c(NCc3nccnc3N(C)S(C)(=O)=O)n2)cc1 [DEFACTINIB] | 103.534%
11 | O=S(=O)(NC1CCC(c2cc(F)ccc2F)(S(=O)(=O)c2ccc(Cl)cc2)CC1)C(F)(F)F (stereo not drawn) [MRK-560] | 103.093%
12 | Cc1cc(Nc2nccc(C)n2)cc(-c2cnc([C@@]3(O)CC[C@H](C(=O)O)C(C)(C)C3)s2)c1 [MRL-SYKi] | 97.9587%

Same assay, conditions: human, 1 µM

Row | Structure (SMILES) | Cell Viability
13 | CC1(C)C(N)=Nc2cc(OCCCN3Cc4ccc(OCCc5cn(CC(=O)N6CCC(CCN7CCCC7)CC6)nn5)cc4C3)c(OCC3CC3)cc21 | 92.0303%
14 | CCCn1c(=O)c2[nH]c(C3CCCC3)nc2n(CCC)c1=O [1,3-DIPROPYL-8-CYCLOPENTYLXANTHINE [DPCPX]] | 101.399%
15 | CN(C)[C@@H]1CCN(c2cc(-c3ccccc3)nc3ccnn23)C1 [(R)-ZINC-3573] | 100.756%
16 | CN(C)CC#Cc1ccc(OCCCc2sc(N3CCc4cccc(C(=O)Nc5nc6ccccc6s5)c4C3)nc2C(=O)O)c(F)c1 [A-1155463] | 88.7648%
17 | CO[C@H]1CC[C@H](CNc2ccc(S(=O)(=O)NC(=O)c3ccc(N4CCN(CC5=C(c6ccc(Cl)cc6)CC(C)(C)CC5)CC4)cc3Oc3cnc4[nH]ccc4c3)cc2[N+](=O)[O-])CC1 [A-1211212] | 88.4422%
18 | COc1ccc2c(c1)O[C@@H](c1ccc(OC)c(OC)c1)C[C@H]2NC(=O)C1(c2ccc3c(c2)OC(F)(F)O3)CC1 [A-1596586] | 101.385%
19 | Cc1[nH]cnc1CN1CCc2c(c3ccccc3n2C)C1=O [ALOSETRON] | 98.6661%
20 | COC(c1ccccc1)(c1ccccc1)[C@H](Oc1nc(C)cc(C)n1)C(=O)O [AMBRISENTAN] | 104.904%
21 | C[C@@H](O[C@H]1OCCN(Cc2n[nH]c(=O)[nH]2)[C@H]1c1ccc(F)cc1)c1cc(C(F)(F)F)cc(C(F)(F)F)c1 [APREPITANT] | 101.584%
22 | CCOc1ccc(C[C@H]2NC(=O)CCSSC[C@@H](C(=O)N3CCC[C@H]3C(=O)N[C@@H](CCCN)C(=O)NCC(N)=O)NC(=O)[C@H](CC(N)=O)NC(=O)[C@H]([C@@H](C)O)NC(=O)[C@H]([C@@H](C)CC)NC2=O)cc1 [ATOSIBAN] ([Mpa][dY](Et)ITNCP[Orn]G-NH2; disulfide 1-6) | 101.789%
23 | Cc1ccccc1Oc1cc(-n2c(=O)cc(C(F)(F)F)[nH]c2=O)c2ccccc2c1Cl [BAY-069] | 101.552%
24 | CNCc1ccccc1-c1csc([C@@H](C)Nc2nc(C)nc3cc(OC)c(OC)cc23)c1 [BAY-293] | 78.8725%
25 | O=C(N1CCS(=O)(=O)CC1)N1C[C@H](c2ccc(OC(F)(F)F)cc2)C[C@H](c2nc(C3CC3)no2)C1 [BAY-386] | 95.9614%
26 | CC1=C(C#N)C(c2ccc3[nH]nc(C)c3c2)C(C#N)=C(C)N1 [BAY-474] | 96.499%
27 | CC(=O)C1=C(C)N(c2cccc(C(F)(F)F)c2)C(=O)N[C@@H]1c1ccc(C#N)nc1 [BAY-678] | 97.287%
28 | Cc1c(NC(=O)c2cc(C(N)=O)nc3cc(F)ccc23)c(C(F)(F)F)nn1Cc1ccc(C#N)cc1 [BAY-876] | 101.62%
29 | CN1CCN(c2cnc3c(C4CCN(C(=O)c5ccc(OC(F)(F)F)cc5N)CC4)ncnc3c2)CC1 [BAY-885] | 96.4414%
30 | O=C(Nc1cnc(Oc2ccc(F)cc2)nc1)N1CCc2ncccc2[C@@H]1c1ccc(F)cc1 [BAY-899] | 98.9586%
31 | C[C@H](c1ccnc(Nc2nc3ccc(-c4cc(N(C)C)ncn4)cc3[nH]2)c1)N1CCN(C(=O)CC(F)(F)F)CC1 [BAY-985] | 78.1838%
32 | NS(=O)(=O)c1cc(NC(=O)Cc2ccccc2)ccc1Oc1cccc(Cl)c1 [BAY-1797] | 95.6935%
33 | CCc1ccccc1C(=O)Nc1n[nH]c2c(C)c(F)c(C3C(C#N)=C(C)N(C)C(C)=C3C#N)cc12 [BAY-3827] | 97.1659%
34 | Cc1c(N2CCCC2)nc2ccc(Br)cc2c1C(=O)NC[C@H](CCC(=O)O)c1ccccc1Cl [BAY-6672] | 98.0293%
35 | COc1ccc2c(O[C@@H]3C[C@H]4C(=O)N[C@]5(C(=O)O)CC5/C=C\CCCCC[C@H](NC(=O)OC5CCCC5)C(=O)N4C3)cc(-c3csc(NC(=O)C(C)C)n3)nc2c1C (stereo partly drawn) [BI 1230] | 99.1645%
36 | CCOCCn1cc(C(=O)Nc2ccc(-n3nc(-c4cccnc4)cc3C(F)(F)F)cn2)ccc1=O [BI 1935] | 94.8333%
37 | C[C@H](NC(=O)c1cnc2n1[C@](C)(Cc1ccc(C#N)cc1)C(=O)N2c1cc(Cl)c(F)c(Cl)c1)C(=O)NC1(c2ccccn2)CC1 [BI 1950] | 96.273%

Row | Structure (SMILES) | Cell Viability
38 | O=C(NC[C@@H]1[C@H]2CN(C(=O)OCc3cc(C(F)(F)F)cc(C(F)(F)F)c3)C[C@@H]12)c1ccc2[nH]nnc2c1 [BI 2545] | 100.102%
39 | CC(=O)N1CCC(c2ccc(C(=O)NC(=N)N)cc2C(F)(F)F)CC1 [BI 9627] | 95.0864%
40 | CCC(=O)N[C@H]1CC[C@@H](C(=O)N(C)c2ccc(-c3nc4ccccc4o3)cc2)C1 [BI 99179] | 102.234%
41 | CC(C)C[C@@H]1NC(=O)[C@@H](C(C)C)NC(=O)[C@@H]2CCCN2C(=O)[C@@H](CC(=O)O)NC(=O)[C@@H](Cc2c[nH]c3ccccc23)NC1=O [BQ-123] (cyclo(L[dW][dD]P[dV])) | 98.787%
42 | O=c1nc(-c2ccccn2)sc2ccccc12 [BTZO-1] | 96.3183%
43 | C[C@@H]1CN(Cc2ccc(F)cc2)CCN1C(=O)COc1ccc(Cl)cc1NC(N)=O [BX 471 FREE BASE] | 91.1693%
44 | CCN(CCO)CCCOc1ccc2c(Nc3cc(CC(=O)Nc4cccc(F)c4)[nH]n3)ncnc2c1 [DEFOSBARASERTIB] | 100.387%
45 | CC(=O)N[C@H](Cc1ccc2ccccc2c1)C(=O)N[C@H](Cc1ccc(Cl)cc1)C(=O)N[C@H](Cc1cccnc1)C(=O)N[C@@H](CO)C(=O)N[C@@H](Cc1ccc(NC(=O)[C@@H]2CC(=O)NC(=O)N2)cc1)C(=O)N[C@H](Cc1ccc(NC(N)=O)cc1)C(=O)N[C@@H](CC(C)C)C(=O)N[C@@H](CCCCNC(C)C)C(=O)N1CCC[C@H]1C(=O)N[C@H](C)C(N)=O [DEGARELIX] (Ac-[d2Nal][dPhe(4-Cl)][d3Pal]S[Phe(4-NH2)](Dihydroorotyl(S))[dPhe(4-NHCONH2)]L[Lys(iPr)]P[dA]-NH2) | 102.434%
46 | O=C(O)Cc1ccccc1Nc1c(Cl)cccc1Cl [DICLOFENAC] | 103.39%
47 | C[C@]12N[C@H](Cc3ccccc31)c1ccccc12 [DIZOCILPINE] | 102.296%
48 | C[C@@H](NC(=O)Nc1cc2[nH]ncc2c(CO)n1)c1ccccc1 [ERKi] | 88.9841%
49 | O=C(NCCN1CCOCC1)c1ccc2c(c1)C(=O)c1ccc(Nc3ccc(F)c(NC(=O)c4ccccc4)c3)cc1CC2 [FS-694] | 91.9931%
50 | CC(=O)Nc1c(F)cc(C(=O)N[C@H]2CC[C@H](O)CC2)cc1O[C@@H](C)c1ccccc1 [GSK046] | 96.5866%
51 | CNC(=O)c1cc(C(=O)NC2CC2)cn(Cc2ccccc2)c1=O [GSK620] | 102.307%
52 | COCc1nc2cnc3cc(-c4c(C)noc4C)c(OC[C@H]4CCNC4)cc3c2n1[C@H](C)c1ccccc1 [GSK778] | 95.4048%
53 | Cc1cc2c(-c3ccco3)cnc(N[C@@H]3CCN(C)C[C@H]3C(=O)NC3CCCCC3)c2[nH]c1=O [GSK789] | 93.8199%
54 | C=CC(=O)N1CCC[C@@H](n2nc(-c3ccc(Oc4ccccc4)cc3)c3c(N)ncnc32)C1 [IBRUTINIB] | 86.9807%
55 | O=S(=O)(c1ccccc1)c1cnc2c(N3CCNCC3)cccc2c1 [INTEPIRDINE] | 101.733%
56 | c1cc(OCCCN2CCCCC2)ccc1CN1CCCCC1 [JNJ-5207852] | 101.482%
57 | CNC(=N)NCCC[C@H](NC(=O)[C@H](CC(C)C)NC(=O)NNC(=O)[C@H](Cc1ccccc1)NC(=O)[C@H](CO)NC(=O)[C@H](CC(N)=O)NC(=O)[C@@H](Cc1ccncc1)NC(=O)[C@H](N)Cc1ccc(O)cc1)C(=O)N[C@@H](Cc1ccccc1)C(N)=O [KISS1-305] (H-[dY][d4Pal]NSF[azaGly]L[Arg(Me)]F-NH2) | 101.037%
58 | CN([C@@H]1CCc2c(CC(=O)O)c3ccccc3n2C1)S(=O)(=O)c1ccc(F)cc1 [MK-7246] | 96.8838%
59 | C[C@@H]1CN(c2cc(-c3n[nH]c4ccc(OC5(C)CC5)cc34)ncn2)C[C@H](C)O1 [MLi-2] | 96.3526%
60 | CC(C)(O)c1cncc(-c2nc3ccc(F)cc3n2C2CC2)c1 [MSD-CYP11B2] | 100.571%
61 | N#CC1(c2ccccn2)CCN(Cc2cc(C(=O)O)c(=O)n3ccccc23)CC1 [MSD-M1PAM] | 98.7103%
62 | CC(=O)Nc1c(C(C)=O)c(=O)n(C)c2nc(-c3ccc(Cl)cc3Cl)c(-c3ccc(Cl)cc3)cc12 [NAPHTHYRIDINONE] | 96.2894%

Same assay, conditions: human, 2 µM

Row | Structure (SMILES) | Cell Viability
63 | CS(=O)(=O)c1cc(C2(NC(=O)c3cncc4c3cnn4-c3ccc(F)cc3)CC2)ccn1 [BI 639667] | 99.2983%
